Structures can show the parent of a compound that is named as a salt.
Tests used:
recombinant human GSK3β = biological target: T1, recombinant human GSK3β (Homo sapiens, UniProt P49841); assay: ATP competition in scintillation proximity GSK3β assay; format: biochemical; conditions: for Ki: mean value, Ki calculated with Km of ATP 20 μM; for Selectivity GSK3β vs CDK2: ratio of CDK2 Ki to GSK3β Ki
T1 construct: purchased Dundee University, UK
Method: Determination of ATP Competition in Scintillation Proximity GSK3β Assay.
The inhibition experiments were carried out in duplicate with 10 concentrations of the inhibitor in 384 well clear-bottom microtitre plates. A biotinylated peptide substrate (Biotin-Ala-Ala-Glu-Glu-Leu-Asp-Ser-Arg-Ala-Gly-Ser(PO3H2)-Pro-Gln-Leu (AstraZeneca, Lund)), was added at a final concentration of 1 mmol/L in an assay buffer (pH 7.0) containing 0.1 mU recombinant human GSK3β (Dundee University, UK), (1 nmol/L active enzyme), 10 mmol/L morpholinepropanesulfonic acid (MOPS), 0.3 mmol/L EDTA, 0.01% (v/v) β-mercaptoethanol, 0.003% (w/v) polyethylene 23 lauryl ether (Brij 35), 0.4% glycerol and 0.02 mg bovine serum albumine (BSA) and preincubated for 10 minutes. The reaction was initiated by the addition of 0.06 mCi [γ-33P]ATP (Amersham, UK) and unlabelled ATP in 30 mmol/L Mg(Ac)2 to a final concentration of […] ATP. The final assay volume was […]. Blank controls without peptide substrate were used. After incubation for 15 min at room temperature, the reaction was terminated by the addition of stop solution containing 1.3 mmol/L EDTA, 13 mmol/L ATP, 0.02% Triton™X-100 and 0.15 mg streptavidin coated SPA beads. After a 5 minutes centrifugation at 2000 rpm, the radioactivity was measured in a liquid scintillation counter (1450 MicroBeta Trilux, Perkin Elmer, Finland). The Km value of ATP for GSK3β, used to calculate the inhibition constants (Ki) of the various compounds, was 20 μM.

Cdk2/cyclin E = Cdk2/cyclin E (Homo sapiens, UniProt P24941); assay: ATP competition in scintillation proximity Cdk2 assay; format: biochemical; conditions: mean value; Ki calculated with Km of ATP 0.5 μM
Method: Determination of ATP Competition in Scintillation Proximity Cdk2 Assay.
The competiton experiments were carried out in duplicate with 10 concentrations of the inhibitor in 96 well clear-bottom microtiter plates. Cdk2/cyclin E enzyme was added at a concentration corresponding to a 80 times dilution of the partially purified bacluloviral infected insect cell lysate in a buffer containing 50 mmol/L HEPES, 10 mmol/L MnCl2, 1 mmol/L dithiothreitol (DTT), 100 μmol/L NaF, 100 μmol/L sodium vanadate, 10 mmol/L sodium glycerophosphate, 5 μg/mL aprotinin, 2.5 μg/mL leupeptin and 100 μmol/L PMSF, pH 7.5. Blank controls without enzyme were used. The reaction was initiated by the addition of 1.25 μg GST-Rb, 0.15 μCi [γ-33P]ATP and unlabelled ATP at a final concentration of 0.1 μmol/L. The final assay volume was 50 μL. After incubation for 60 min at room temperature, each reaction was terminated by the addition of 150 μL stop solution containing 45 μL protein A coated SPA beads in 50 mmol/L HEPES, 3.28 mg antiglutathione-S-transferase, and 5.5 mmol/L EDTA and 35 μmol/L ATP. The plate was centrifuged at 2000 rpm for 5 min and the radioactivity was determined in a liquid scintillation counter (1450 MicroBeta Trilux, Perkin Elmer, Finland). The Km value of ATP for Cdk2 used to calculate the inhibition constants (Ki) of the various compounds, was 0.5 μM

[1] = CaCo-2 A to B permeability assay Alt 2 (pH 7.4); format: in vitro ADME; conditions: human, Alt 2: apical to basolateral, pH 7.4, 10 μM, mean value
Method: (§1) CaCo-2 Cell Permeability Assay
(§2) CaCo-2 cells were seeded onto filter membrane at a density of 340500 cells/cm2 for 24 well plates (0.33 cm2/well). The cells were grown in culture medium consisting of Dulbecco's modified Eagle's medium with glucose and L-glutamine supplemented with 10% fetal bovine serum, 100 U/ml penicillin-G, and 100 μg/ml streptomycin and 1% (v/v) 100X non-essential amino acids. The culture medium was replaced every second day and the cells were maintained at 37° C., 95% relative humidity, and 5% CO2. Permeability studies were conducted with the monolayers cultured for 21-28 days with the cell passage numbers between 25 and 50.
Alt 2. the CaCo-2 A to B Permeability Assay Used in Examples 2-4, 7-8.
The CaCo-2 A to B assay was performed in the apical to basolateral direction (each in duplicates) at pH 7.4. HBSS containing 25 mM HEPES (pH 7.4) was used as transport medium. The drug solutions, typically 10 μM, were prepared in transport medium (1% DMSO). Studies of six compounds can be performed in one 24 well plate that generates one 96 deepwell analysis plate (maximum capacity 6 plates=36 compounds and 6 deep well plates). The CaCo-2 cell monolayers were washed once with HBSS for 10 minutes prior to start. Transport buffer, 800 μL, (HBSS, pH 7.4) is first dispensed to the basal side of the monolayer. The assay is then initiated by addition of 225 μL of each compound (10 μM) to the apical side. Samples are withdrawn directly (Donor 0) and at 60 min (Donor end and Receiver 60) post addition of test compound. 25 μL and 150 μL are withdrawn from the donor compartment and the receiver compartment, respectively. During washing-step and incubation with compounds the transwell plates are placed in a shaking incubator at 480 rpm and 37° C. The integrity of the epithelial cell monolayer is monitored by measuring the amount of radiolabelled [^14C]mannitol (low passive paracellular diffusion) in the donor compartment at time 0 min to 60 min. Luma Plate 96-well is used for analysis of [14C]mannitol. Compound recovery was assessed by calculating the sum of the cumulatively transported amount and the amount left in the donor side against the initial amount of drug. The samples were analysed online using liquid chromatography tandem mass spectrometry (LC/MS/MS).
(§3) The apparent permeability coefficient is calculated as follows: […]
where ΔQ/Δt is the total amount of substance transported into the receiver chamber per unit time, A is the surface area (cm^2), and C0 the starting donor concentration. The apparent permeability Papp is expressed in ×10-6 cm/sec.

[2] = CaCo-2 permeability assay Alt 1 (pH gradient 6.5/7.4); format: in vitro ADME; conditions: human, Alt 1: apical to basolateral, pH 6.5 apically, pH 7.4 basolaterally, typically 10 μM, mean value
Method: as §1, §2
Alt 1. the CaCo-2 Permeability Assay Used in Examples 3, 5, 6 and Reference Example.
The CaCo-2 permeabilty assay were performed in the apical to basolateral directions under gradient pH-gradient conditions (pH 6.5 apically, pH 7.4 basolaterally). HBSS containing 25 mM HEPES (pH 7.4) and 25 mM MES (pH 6.5) was used as transport medium. Fully differentiated cell monolayers were washed with transport medium. The drug solutions, typically 10 μM, were prepared in transport medium, pH 6.5 (1% DMSO). The permeability experiment was started by adding 0.2 ml drug solutions on the apical side. The basolateral side contained 0.8 ml of transport medium, pH 7.4. Three inserts with cells and one without were assayed for each drug. Cells were kept in an incubator at 37° C. and shaking. 200 μl samples were taken at 45 and 90 min from the basolateral side. The same volume of transport buffer was added to the basolateral compartments after the first sampling. Compound recovery was assessed by calculating the sum of the cumulatively transported amount and the amount left in the donor side against the initial amount of drug. The samples were analysed online using liquid chromatography tandem mass spectrometry (LC/MS/MS). […] The samples of 25 μl were analysed by liquid scintillation.
as §3

T1 sequence (P49841 whole entry): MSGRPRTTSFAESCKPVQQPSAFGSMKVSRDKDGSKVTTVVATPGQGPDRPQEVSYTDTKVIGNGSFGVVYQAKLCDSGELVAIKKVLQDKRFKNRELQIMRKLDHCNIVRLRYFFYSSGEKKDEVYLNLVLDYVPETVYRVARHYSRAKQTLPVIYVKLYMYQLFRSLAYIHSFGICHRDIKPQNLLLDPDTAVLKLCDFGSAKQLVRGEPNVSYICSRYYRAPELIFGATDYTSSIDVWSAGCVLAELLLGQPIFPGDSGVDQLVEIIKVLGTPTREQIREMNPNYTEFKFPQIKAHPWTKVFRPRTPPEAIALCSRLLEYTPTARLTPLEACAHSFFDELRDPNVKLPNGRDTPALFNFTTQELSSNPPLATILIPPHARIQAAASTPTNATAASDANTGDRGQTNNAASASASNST

| Ki (recombinant human GSK3β) [µM] | Selectivity GSK3β vs CDK2 (recombinant human GSK3β) | Ki (Cdk2/cyclin E) [µM] | melting point [°C] | Selectivity GSK3β vs CDK2 (recombinant human GSK3β; hydrochloride) | SMILES | Papp A→B at 60 min, 10 µM [1] [×10⁻⁶ cm/s] | Papp A→B at 90 min, 10 µM [2] [×10⁻⁶ cm/s] |
| --- | --- | --- | --- | --- | --- | --- | --- |
| 0.011 | 29 | 0.318 |  |  | Cc1ncc(-c2nc(Nc3ccc(CN4[C@@H](C)COC[C@@H]4C)cc3F)ncc2F)n1C1CCOCC1 [Ex 4, N-(4-(((3S,5S)-3,5-Dimethylmorpholino)methyl)-2-fluorophenyl)-5-fluoro-4-(2-methyl-1-(tetrahydro-2H-pyran-4-yl)-1H-imidazol-5-yl)pyrimidin-2-amine hydrochloride] | 44 |  |
| 0.011 | 16 | 0.175 |  |  | Cc1ncc(-c2nc(Nc3cc(F)c(CN4CCOC[C@@H]4C)cc3F)ncc2F)n1C1CCOCC1 [Ex 7, N-(2,5-Difluoro-4-(((S)-3-methylmorpholino)methyl)phenyl)-5-fluoro-4-(2-methyl-1-(tetrahydro-2H-pyran-4-yl)-1H-imidazol-5-yl)pyrimidin-2-amine] | 44 |  |
| 0.0049 | 26 | 0.127 |  |  | Cc1ncc(-c2nc(Nc3cc(F)c(CN4CCOCC4)cc3F)ncc2F)n1C1CCOCC1 [Ex 5, N-(2,5-Difluoro-4-(morpholinomethyl)phenyl)-5-fluoro-4-(2-methyl-1-(tetrahydro-2H-pyran-4-yl)-1H-imidazol-5-yl)pyrimidin-2-amine] |  | 45 |
|  |  |  | 177 |  | Cc1ncc(-c2nc(Nc3cc(F)c(CN4CCOCC4)cc3F)ncc2F)n1C1CCOCC1 (as salt: succinate) [Ex 5, N-(2,5-Difluoro-4-(morpholinomethyl)phenyl)-5-fluoro-4-(2-methyl-1-(tetrahydro-2H-pyran-4-yl)-1H-imidazol-5-yl)pyrimidin-2-amine] |  |  |
| 0.03 | 31 | 0.94 |  |  | Cc1ncc(-c2nc(Nc3ccc(CN4CCOC[C@@H]4C)cc3F)ncc2F)n1C1CCOCC1 [Ex 3, 5-Fluoro-N-(2-fluoro-4-(((S)-3-methylmorpholino)methyl)phenyl)-4-(2-methyl-1-(tetrahydro-2H-pyran-4-yl)-1H-imidazol-5-yl)pyrimidin-2-amine hydrochloride] | 56 |  |
| 0.0049 |  | 0.133 |  | 27 | Cc1ncc(-c2nc(Nc3cc(F)c(CN4CCOCC4)cc3F)ncc2F)n1C1CCOCC1 [Ex 6, N-(2,5-Difluoro-4-(morpholinomethyl)phenyl)-5-fluoro-4-(2-methyl-1-(tetrahydro-2H-pyran-4-yl)-1H-imidazol-5-yl)pyrimidin-2-amine hydrochloride] |  |  |
| 0.0077 | 29 | 0.222 |  |  | Cc1ncc(-c2nc(Nc3cc(F)c(CN4[C@@H](C)COC[C@@H]4C)cc3F)ncc2F)n1C1CCOCC1 [Ex 8, N-(4-(((3S,5S)-3,5-Dimethylmorpholino)methyl)-2,5-difluorophenyl)-5-fluoro-4-(2-methyl-1-(tetrahydro-2H-pyran-4-yl)-1H-imidazol-5-yl)pyrimidin-2-amine] | 40 |  |
| 0.0081 | 14 | 0.11 |  |  | Cc1ncc(-c2nc(Nc3ccc(CN4CCOCC4)cc3)ncc2F)n1C1CCOCC1 [Reference example, 5-fluoro-4-(2-methyl-1-(tetrahydro-2H-pyran-4-yl)-1H-imidazol-5-yl)-N-(4-(morpholinomethyl)phenyl)pyrimidin-2-amine, reference compound] |  | 26 |
| 0.015 | 20 | 0.308 |  |  | Cc1ncc(-c2nc(Nc3ccc(CN4CCOCC4)cc3F)ncc2F)n1C1CCOCC1 [Ex 1, 5-Fluoro-N-(2-fluoro-4-(morpholinomethyl)phenyl)-4-(2-methyl-1-(tetrahydro-2H-pyran-4-yl)-1H-imidazol-5-yl)pyrimidin-2-amine] |  | 36 |
| 0.005 | 58 | 0.29 |  |  | Cc1ncc(-c2nc(Nc3ccc(CN4CCOC[C@H]4C)cc3F)ncc2F)n1C1CCOCC1 [Ex 2, 5-Fluoro-N-(2-fluoro-4-(((R)-3-methylmorpholino)methyl)phenyl)-4-(2-methyl-1-(tetrahydro-2H-pyran-4-yl)-1H-imidazol-5-yl)pyrimidin-2-amine hydrochloride] | 39 |  |
